Measured values taken from the NIST ThermoML archive (doi:10.1007/s10765-015-1922-3).
Numbers after ± are expanded uncertainties.

Columns and labels:
[1] = Liquid; for mass density: 298.15 K, 101.33 kPa, Vibrating tube method; for Normal boiling temperature: Ebulliometric method (Recirculating still)
[2] = refractive index (Na D-line) (dimensionless); conditions: 298.15 K; 101.33 kPa; Liquid; Standard Abbe refractometry

mass density [1] | Normal boiling temperature [1] | refractive index [2] | Compound
873.6 ± 0.16 kg/m3 | 80.01 ± 0.2 °C | 1.49692 ± 0.00073 | c1ccccc1 [benzene]
799.51 ± 0.31 kg/m3 | 97.2 ± 0.2 °C | 1.38305 ± 0.00075 | CCCO [propan-1-ol]
773.7 ± 0.2 kg/m3 | 80.64 ± 0.2 °C | 1.4232 ± 0.00073 | C1CCCCC1 [cyclohexane]
